Active and inactive are the calls of the source. No cut-off for these calls is given here.
Experiments:
PBMC [1] = test: Immunomodulatory activity in human PBMC cells assessed as increase in IL-17A level at 2 uM incubated for 18 hrs y flow cytometry analysis; type: functional, cell-based
How it was run: (§1)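 Human donor PBMCs (Ficoll-Paque; 1 × 10^6 cells/mL, 500 μL, 48-well plates) were treated with compounds at 2 μM or 0.1% DMSO vehicle without LPS for 18 h at 37 °C, 5% CO2. Cytokines in cell-free supernatants were quantified with the LEGENDplex Human Essential Immune Response Panel on a flow cytometer against kit recombinant standard curves. Four independent replicates; two-way ANOVA with Tukey's test.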

PBMC [2] = test: Immunomodulatory activity in human PBMC cells assessed as increase in TNF-alpha level at 2 uM incubated for 18 hrs y flow cytometry analysis; type: functional, cell-based; how it was run: as §1
BMDC [3] = test: Adjuvant activity in OVA-immunized C57BL/6J mouse BMDC cells co-cultured with mouse CD4+ T cells assessed as increase in IL-4 production at 10 uM incubated for 18 hrs by flow cytometry analysis; type: functional, cell-based
PBMC [4] = test: Immunomodulatory activity in human PBMC cells assessed as increase in LPS-induced IFN-gamma level at 2 uM incubated for 18 hrs y flow cytometry analysis; type: functional, cell-based
PBMC [5] = test: Immunomodulatory activity in human PBMC cells assessed as increase in TGF-beta1 level at 2 uM incubated for 18 hrs y flow cytometry analysis; type: functional, cell-based; how it was run: as §1
PBMC [6] = test: Immunomodulatory activity in human PBMC cells assessed as increase in LPS-induced IL-12p70 level at 2 uM incubated for 18 hrs y flow cytometry analysis; type: functional, cell-based
BMDC [7] = test: Adjuvant activity in OVA-immunized C57BL/6J mouse BMDC cells co-cultured with mouse CD8+ T cells assessed as increase in IL-9 production at 10 uM incubated for 18 hrs by flow cytometry analysis; type: functional, cell-based
PBMC [8] = test: Immunomodulatory activity in human PBMC cells assessed as increase in LPS-induced TNF-alpha level at 2 uM incubated for 18 hrs y flow cytometry analysis; type: functional, cell-based
PBMC [9] = test: Immunomodulatory activity in human PBMC cells assessed as increase in IL-4 level at 2 uM incubated for 18 hrs y flow cytometry analysis; type: functional, cell-based; how it was run: as §1
PBMC [10] = test: Immunomodulatory activity in human PBMC cells assessed as increase in IP-10 level at 2 uM incubated for 18 hrs y flow cytometry analysis; type: functional, cell-based; how it was run: as §1
PBMC [11] = test: Immunomodulatory activity in human PBMC cells assessed as increase in IL-12p70 level at 2 uM incubated for 18 hrs y flow cytometry analysis; type: functional, cell-based; how it was run: as §1
PBMC [12] = test: Immunomodulatory activity in human PBMC cells assessed as increase in IL-1beta level at 2 uM incubated for 18 hrs y flow cytometry analysis; type: functional, cell-based; how it was run: as §1
PBMC [13] = test: Immunomodulatory activity in human PBMC cells assessed as increase in LPS-induced IL-10 level at 2 uM incubated for 18 hrs y flow cytometry analysis; type: functional, cell-based
How it was run: (§2)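 Peripheral blood mononuclear cells from human donors were isolated with Ficoll-Paque and plated in 48-well plates at 1 × 10^6 cells/mL, 500 μL per well. Cells received compounds at 2 μM or 0.1% DMSO together with LPS (10 ng/mL) and were kept for 18 h at 37 °C, 5% CO2. Cytokine levels in cell-free supernatants were measured by flow cytometry with the LEGENDplex Human Essential Immune Response Panel, using the kit's recombinant standard curves. Data come from four independent replicates analysed by two-way ANOVA with Tukey's test.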

BMDC [14] = test: Adjuvant activity in OVA-immunized C57BL/6J mouse BMDC cells co-cultured with mouse CD4+ T cells assessed as reduction in IFN-gamma production at 10 uM incubated for 18 hrs by flow cytometry analysis; type: functional, cell-based
BMDC [15] = test: Adjuvant activity in OVA-immunized C57BL/6J mouse BMDC cells co-cultured with mouse CD4+ T cells assessed as increase in IL-9 level at 10 uM incubated for 18 hrs; type: functional, cell-based
PBMC [16] = test: Immunomodulatory activity in human PBMC cells assessed as increase in LPS-induced IP-10 level at 2 uM incubated for 18 hrs y flow cytometry analysis; type: functional, cell-based; how it was run: as §2
PBMC [17] = test: Immunomodulatory activity in human PBMC cells assessed as increase in IFN-gamma level at 2 uM incubated for 18 hrs y flow cytometry analysis; type: functional, cell-based; how it was run: as §1
PBMC [18] = test: Immunomodulatory activity in human PBMC cells assessed as increase in LPS-induced IL-6 level at 2 uM incubated for 18 hrs y flow cytometry analysis; type: functional, cell-based; how it was run: as §2
PBMC [19] = test: Cytotoxicity against human PBMC cells co-cultured with human K562 cells at 10 uM incubated for 4 hrs; type: functional, cell-based
How it was run: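 Killing was scored as the share of K562 cells positive for both CFSE and Sytox blue. Human PBMCs were seeded in 96-well plates at 4 × 10^5 per well and pretreated for 18 h with compounds at 10 μM, with 0.1% DMSO as vehicle. CFSE-stained K562 cells were then added at 1 × 10^4 per well (effector:target 40:1) for 4 h at 37 °C, 5% CO2, before Sytox blue staining and reading on an Attune NxT flow cytometer. Assays ran in duplicate across three independent biological replicates and were analysed by one-way ANOVA with Dunnett's test.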

PBMC [20] = test: Immunomodulatory activity in human PBMC cells assessed as increase in IL-10 level at 2 uM incubated for 18 hrs y flow cytometry analysis; type: functional, cell-based; how it was run: as §1
[21] = Cytotoxicity against human PBMC cells at 10 uM incubated for 4 hrs; type: toxicity, cell-based
How it was run: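 Direct cytotoxicity was scored as the fraction of Sytox blue-positive cells among human PBMCs cultured without other cells. The PBMCs were exposed to compounds at 10 μM, with 0.1% DMSO as vehicle, alongside a K562 killing assay, then stained with Sytox blue dead cell stain and run on an Attune NxT flow cytometer, with analysis in FlowJo. Each condition was tested in duplicate across three independent biological replicates, and one-way ANOVA with Dunnett's test was applied.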

BMDC [22] = test: Adjuvant activity in OVA-immunized C57BL/6J mouse BMDC cells co-cultured with mouse CD8+ T cells assessed as increase in IL-6 production at 10 uM incubated for 18 hrs by flow cytometry analysis; type: functional, cell-based
BMDC [23] = test: Adjuvant activity in OVA-immunized C57BL/6J mouse BMDC cells assessed as increase in CD4+ T cell activation incubated for 18 hrs; type: functional, cell-based
How it was run: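 Bone-marrow-derived dendritic cells from C57BL/6 mice (7 days with GM-CSF) were pretreated 18 h with compounds at 10 μM plus 50 μg/mL ovalbumin, washed, and combined (1 × 10^4/well) with 5 × 10^4 CFSE-labelled OT II CD4+ T cells for 72 h at 37 °C, 5% CO2. Activation of live Thy1.2+/CD4+ cells was read by flow cytometry as CFSE dilution and CD25 expression. Duplicates, two independent biological replicates; paired t tests.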

[24] = Cytotoxicity against human HEK-Blue hNOD2 cells assessed as metabolic activity at 10 uM incubated for 18 hes by MTT assay; type: toxicity, cell-based; details: hek-blue hnod2, 10 µM
PBMC [25] = test: Immunomodulatory activity in human PBMC cells assessed as increase in IL-8 level at 2 uM incubated for 18 hrs y flow cytometry analysis; type: functional, cell-based; how it was run: as §1
[26] = Cytotoxicity against human PBMC cells at 10 uM incubated for 4 hrs in presence of MDP; type: toxicity, cell-based
PBMC [27] = test: Immunomodulatory activity in human PBMC cells assessed as increase in IL-2 level at 2 uM incubated for 18 hrs y flow cytometry analysis; type: functional, cell-based; how it was run: as §1
PBMC [28] = test: Immunomodulatory activity in human PBMC cells assessed as increase in IL-6 level at 2 uM incubated for 18 hrs y flow cytometry analysis; type: functional, cell-based; how it was run: as §1
BMDC [29] = test: Adjuvant activity in OVA-immunized C57BL/6J mouse BMDC cells co-cultured with mouse CD4+ T cells assessed as increase in IL-2 level at 10 uM incubated for 18 hrs; type: functional, cell-based
BMDC [30] = test: Adjuvant activity in OVA-immunized C57BL/6J mouse BMDC cells co-cultured with mouse CD8+ T cells assessed as reduction in IFN-gamma production at 10 uM incubated for 18 hrs by flow cytometry analysis; type: functional, cell-based
PBMC [31] = test: Immunomodulatory activity in human PBMC cells assessed as increase in LPS-induced MCP-1 level at 2 uM incubated for 18 hrs y flow cytometry analysis; type: functional, cell-based; how it was run: as §2
PBMC [32] = test: Immunomodulatory activity in human PBMC cells assessed as increase in MCP-1 level at 2 uM incubated for 18 hrs y flow cytometry analysis; type: functional, cell-based; how it was run: as §1
BMDC [33] = test: Adjuvant activity in OVA-immunized C57BL/6J mouse BMDC cells co-cultured with mouse CD4+ T cells assessed as increase in IL-6 production at 10 uM incubated for 18 hrs by flow cytometry analysis; type: functional, cell-based
PBMC [34] = test: Immunomodulatory activity in human PBMC cells assessed as increase in LPS-induced IL-1beta level at 2 uM incubated for 18 hrs y flow cytometry analysis; type: functional, cell-based
[35] = Anti-inflammatory activity in human PBMC cells assessed as increase in percentage of intermediate monocytes at 10 uM incubated for 18 hrs by flow cytometry analysis; type: functional
[36] = Anti-inflammatory activity in human PBMC cells assessed as increase in percentage of non classical monocytes at 10 uM incubated for 18 hrs by flow cytometry analysis; type: functional
[37] = Anti-inflammatory activity in human PBMC cells assessed as increase in percentage of classical monocytes at 10 uM incubated for 18 hrs by flow cytometry analysis; type: functional

SMILES	Activity (PBMC [1])	Activity (PBMC [2])	Activity (PBMC [4])	Activity (PBMC [5])	Activity (PBMC [6])	Activity (BMDC [7])	Activity (PBMC [8])	Activity (PBMC [9])	Activity (PBMC [10])	Activity (PBMC [11])	Activity (PBMC [12])	Activity (PBMC [13])	Activity (BMDC [15])	Activity (PBMC [16])	Activity (PBMC [17])	Activity (PBMC [18])	Activity (PBMC [19])	Activity (PBMC [20])	Activity [21]	Activity (BMDC [23])	other results
CCOC(=O)[C@@H](CCC(=O)NC12C[C@H]3C[C@@H](C1)C[C@@H](C2)C3)NC(=O)[C@@H](NC(=O)CNC(=O)/C=C/c1ccc(O)c(OC)c1)C(C)C	Active	Active	Active	Active	Active	Active	Active	Active	Active	Active	Active	Active	Active	Active	Active	Active	inactive	Active	Non-toxic	Active	Activity (BMDC [3]): Active; Activity (BMDC [14]): Active; Activity (BMDC [22]): Active; Activity [24]: Non-toxic; Activity (PBMC [25]): Active; Activity [26]: Non-toxic; Activity (PBMC [27]): Active; Activity (PBMC [28]): Active; Activity (BMDC [29]): Active; Activity (BMDC [30]): Active; Activity (PBMC [31]): Active; Activity (PBMC [32]): Active; Activity (BMDC [33]): Active; Activity (PBMC [34]): Active
CCOC(=O)CC[C@@H](NC(=O)[C@@H](NC(=O)CNC(=O)/C=C/c1ccc(OC(=O)CO[C@H]2CC[C@@]3(C)C(=CC[C@H]4[C@@H]5CC[C@H]([C@H](C)CCCC(C)C)[C@@]5(C)CC[C@@H]43)C2)c(OC)c1)C(C)C)C(=O)OCC	Active	Active	Active	Active	Active	Active	Active	Active	Active	Active	Active	Active	Active	Active	Active	Active	Active	Active	Moderate_effect	Active	Activity [35]: 4.53%; Activity [36]: 76.6%; Activity [37]: 0.35%; Activity [24]: Non-toxic; Activity (PBMC [25]): Active; Activity (PBMC [27]): Active; Activity (PBMC [28]): Active; Activity (BMDC [29]): Active; Activity (PBMC [31]): Active; Activity (PBMC [32]): Active; Activity (BMDC [33]): Active; Activity (PBMC [34]): Active

From ChEMBL document CHEMBL6120969, “Distinctive Immune Signatures Driven by Structural Alterations in Desmuramylpeptide NOD2 Agonists” (J Med Chem, 2024)
